According to patent publication US8796300B2, “Therapeutic compounds” (Rutgers, the State University of New Jersey, priority 2009, dated 2014):

Key:
[1] = system: human lymphoblastoma cell line RPMI 8402; assay: MTT cytotoxicity assay (Test B); format: cell-based; conditions: RPMI 8402, 96 h, cells cultured 4 days
Description: (§1) Test B. Evaluation of G-Quadruplex Stabilizers using the MTT Assay.
(§2) Cell lines are selected based upon one or more factors including data on their relative telomerase activity, varied organ sites, available comparative data, and their ability to form solid tumors in athymic nude mice. The advantage of an MTT assay is that the cytotoxic/cytostatic activities can be readily determined.

[2] = system: KB3-1 human epidermoid carcinoma tumor cells; assay: MTT cytotoxicity assay (Test B); format: cell-based; conditions: KB 3-1, 96 h, cells cultured 4 days
Description: as §1, §2

[3] = system: MDA-MB-435 human tumor xenografts (human melanoma cells); assay: Human tumor xenograft athymic nude mouse model (Test C); format: in vivo, female NCR/NU NU mice; conditions: ip injection; athymic nude mice; tumor volume
Procedure: Test C. Evaluation of G-Quadruplex Stabilizers in the Human Tumor Xenograft Athymic Nude Mouse Model.
Compound 33 inhibited the growth of MDA-MD-435 human tumor xenografts (developed from human melanoma cells) in vivo by more than 50% when administered by ip injection. Bioassays were performed using female NCR/NU NU mice of approximately 9 weeks of age as obtained from Taconic Farms, Inc. (Germantown, N.Y., USA). Mice were housed 4 per cage in laminar flow HEPA filtered microisolator caging (Allentown Caging Equipment Co., Allentown, N.J., USA). Mice were fed Purina autoclavable breeder chow #5021 and given drinking water, purified by reverse-osmosis, ad libitum. Five days after arrival within the animal facility, the mice were inoculated on the right flank with 1.5×10^6 MDA-MB-435 tumor cells in 0.1 mL of RPMI 1640 Media by sc injection (25 gauge needle×⅝″). The MDA-MB-435 cells were grown in 75 cm^2 flasks using RPMI 1640 Media and 10% fetal bovine serum. Tumors were of sufficient size at 19-20 days after inoculation. Tumor-bearing mice were evenly matched in each experimental group based on tumor volume. Tumor volume was calculated by measuring the tumor with a microcaliper. The length (l) is the maximum two dimensional distance of the tumor and the width (w) is the maximum distance perpendicular to this length measured in mm. Tumor volume was calculated using the formula (l*w^2)/2.

Salmon Testes Duplex DNA = assay: UV melting, thermal stabilization of duplex DNA (Test A); format: binding; conditions: pH 7.5, 50 mM K+; Tm of the drug-DNA complex minus that of the DNA alone; absorbance at 260 nm
Description: (§3) Test A. Selective Stabilization of G-Quadruplex DNA Analyses can be performed to determine the ability of the compounds to selectively bind and thermally stabilize quadruplex relative to duplex DNA. Toward this end, the UV absorbances of the DNA molecules are monitored as a function of temperature in the absence and presence of compound. The melting of duplex DNA is generally associated with a hyperchromic shift at 260 nm, while the melting of quadruplex DNA is associated with a hypochromic shift at 295 nm. Thus, the temperature-dependent absorbances of duplex DNA are monitored at 260 nm, with the corresponding quadruplex absorbances being monitored at 295 nm. Salmon testes DNA can be used as a representative model of duplex DNA and d([…])4 can be used as a representative model of quadruplex DNA. All UV melting studies are conducted at physiological pH (7.4) in the presence of potassium ions at physiologically relevant concentrations. Representative compounds of formula I (compounds 6, 32, and 33) were evaluated for their abilities to selectively bind and stabilize G-quadruplex relative to duplex DNA. […] By contrast, none of the compounds exert any impact on the thermal stability of the DNA duplex (ΔTm=0° C. for all three compounds).

[4] = system: Human Telomeric G-Quadruplex DNA d(T2AG3)4; assay: UV melting, thermal stabilization of G-quadruplex DNA (Test A); format: binding; conditions: pH 7.5, 50 mM K+; Tm of the drug-DNA complex minus that of the DNA alone; absorbance at 295 nm
Description: as §3

[5] = system: HBC-4, BSY-1, HBC-5, MCF-7, and MDA-MB-231; conditions: range over HBC-4, BSY-1, HBC-5, MCF-7, MDA-MB-231; read-out: GI50 against human breast cancer cell lines; cited from earlier work
WAC2 = conditions: human neuroblastoma cell line; read-out: cytotoxicity IC50 WAC2; cited from earlier work
SK-N-AS = conditions: human neuroblastoma cell line; read-out: cytotoxicity IC50 SK-N-AS; cited from earlier work
telomerase = conditions: read-out: telomerase inhibitory activity IC50; cited from earlier work
MiaPaCa = conditions: human pancreatic carcinoma; read-out: cytotoxicity IC50 MiaPaCa; cited from earlier work
LAN1 = conditions: human neuroblastoma cell line; read-out: cytotoxicity IC50 LAN1; cited from earlier work
LAN5 = conditions: human neuroblastoma cell line; read-out: cytotoxicity IC50 LAN5; cited from earlier work

Compound	melting point	IC50 [1] [nM]	IC50 [2] [nM]	also measured
O=C(NCCc1cc2cc(c1)CNC(=O)c1coc(n1)-c1coc(n1)-c1cc(OCCCN3C(=O)c4ccccc4C3=O)cc(n1)-c1nc(co1)-c1nc(co1)C(=O)NC2)OCc1ccccc1 [Compound 45]	167 to 170 °C	> 10000	> 10000	
O=C1NCc2cc(Br)cc(c2)CNC(=O)c2coc(n2)-c2coc(n2)-c2cccc(n2)-c2nc(co2)-c2nc1co2 [Compound 29]	248 to 250 °C	300	60	
O=C(NCCc1cc2cc(c1)CNC(=O)c1coc(n1)-c1coc(n1)-c1cc(Br)cc(n1)-c1nc(co1)-c1nc(co1)C(=O)NC2)OCc1ccccc1 [Compound 35]	204 to 205 °C	1000	600	
CC(=O)NCCCOc1cc2nc(c1)-c1nc(co1)-c1nc(co1)C(=O)NCc1cccc(c1)CNC(=O)c1coc(n1)-c1coc-2n1 [Compound 47]		> 10000	10000	
O=C(NCCc1cc2cc(c1)CNC(=O)c1coc(n1)-c1coc(n1)-c1cccc(n1)-c1nc(co1)-c1nc(co1)C(=O)NC2)OCc1ccccc1 [Compound 30]	196 to 198 °C	120	120	
CN(C)CCc1cc2cc(c1)CNC(=O)c1coc(n1)-c1coc(n1)-c1cccc(n1)-c1nc(co1)-c1nc(co1)C(=O)NC2 [Compound 33]	295 °C (dec.)	180	40	inhibition of growth of human tumor xenografts in vivo [3]: more than 50%; Salmon Testes Duplex DNA ΔTm (Salmon Testes Duplex DNA): 0 °C; Human Telomeric G-Quadruplex DNA ΔTm [4]: 31.5 °C
O=C1NCCNCCNC(=O)c2coc(n2)-c2coc(n2)-c2cccc(n2)-c2nc(co2)-c2nc1co2 [Compound 8]	276 °C (dec.)	> 10000	4000	
O=C1NCc2cccc(n2)CNC(=O)c2coc(n2)-c2coc(n2)-c2cccc(n2)-c2nc(co2)-c2nc1co2 [Compound 7]	330 °C (dec.)	> 5000	> 5000	
O=C1NCc2cccc(c2)CNC(=O)c2coc(n2)-c2csc(n2)-c2cccc(n2)-c2nc(co2)-c2nc1co2 [Compound 14]	274 to 275 °C (dec.)	1000	260	
O=C1NCc2cc(CCNC(=O)C(F)(F)F)cc(c2)CNC(=O)c2coc(n2)-c2coc(n2)-c2cc(Br)cc(n2)-c2nc(co2)-c2nc1co2 [Compound 36]	305 to 307 °C (dec.)	> 10000	4000	
CN(C)CCc1cc2cc(c1)CNC(=O)c1coc(n1)-c1coc(n1)-c1cccc(c1)-c1nc(co1)-c1nc(co1)C(=O)NC2 [Compound 61]		2000	400	
O=C1NCc2cc(Br)cc(c2)CNC(=O)c2coc(n2)-c2coc(n2)-c2cc(OCCCN3C(=O)c4ccccc4C3=O)cc(n2)-c2nc(co2)-c2nc1co2 [Compound 44]	289 to 290 °C (dec.)	1000	1000	
CN(C)c1cc2cc(c1)CNC(=O)c1coc(n1)-c1coc(n1)-c1cccc(n1)-c1nc(co1)-c1nc(co1)C(=O)NC2 [Compound 48]		60	30	
CC[C@H](C)[C@@H]1NC(=O)c2nc(oc2-c2ccccc2)-c2csc(n2)-c2coc(n2)-c2coc(n2)-c2coc(n2)CNC(=O)[C@@H](C(C)C)NC1=O [YM-216391]				GI50 [5]: 15 to 33 nM
NCCCOc1cc2nc(c1)-c1nc(co1)-c1nc(co1)C(=O)NCc1cccc(c1)CNC(=O)c1coc(n1)-c1coc-2n1 [Compound 46]	237 to 239 °C (dec.)	5000	3000	
O=C1NCc2cccc(c2)CNC(=O)c2coc(n2)-c2csc(n2)-c2cccc(n2)-c2nc(cs2)-c2nc1co2 [Compound 22]	245 °C	> 10000	> 10000	
CC(C)(C)OC(=O)NCCc1cc2cc(c1)CNC(=O)c1coc(n1)-c1coc(n1)-c1cccc(c1)-c1nc(co1)-c1nc(co1)C(=O)NC2 [Compound 59]		3600	3100	
O=C1NCc2cccc(c2)CNC(=O)c2coc(n2)-c2coc(n2)-c2cc(OCCCN3C(=O)c4ccccc4C3=O)cc(n2)-c2nc(co2)-c2nc1co2 [Compound 43]	249 to 252 °C (dec.)	4500	400	
O=C1NCc2cc(CCNC(=O)C(F)(F)F)cc(c2)CNC(=O)c2coc(n2)-c2coc(n2)-c2cccc(n2)-c2nc(co2)-c2nc1co2 [Compound 31]	290 °C (dec.)	170	70	
O=C1NCc2cccc(c2)CNC(=O)c2coc(n2)-c2coc(n2)-c2cccc(n2)-c2nc(co2)-c2nc1co2 [Compound 6]	320 to 324 °C (dec.)	1050	1200	Salmon Testes Duplex DNA ΔTm (Salmon Testes Duplex DNA): 0 °C; Human Telomeric G-Quadruplex DNA ΔTm [4]: 20.5 °C
NCCc1cc2cc(c1)CNC(=O)c1coc(n1)-c1coc(n1)-c1cccc(n1)-c1nc(co1)-c1nc(co1)C(=O)NC2 [Compound 32]	277 to 280 °C (dec.)	90	30	
O=C1NCc2cccc(c2)CNC(=O)c2coc(n2)-c2coc(n2)-c2cc(Br)cc(n2)-c2nc(co2)-c2nc1co2 [Compound 28]	211 to 213 °C	300	150	
Cc1oc2nc1-c1nc(co1)-c1nc(co1)-c1nc(co1)-c1nc(co1)-c1nc(co1)C1=NC(CS1)c1nc-2c(C)o1 (stereo not shown) [Telomestatin]				IC50 (WAC2): 3200 nM; IC50 (SK-N-AS): 800 nM; IC50 (telomerase): 5 nM; IC50 (MiaPaCa): 500 nM; IC50 (LAN1): 4000 nM; IC50 (LAN5): 2500 nM
O=C1NCc2cc(Br)cc(c2)CNC(=O)c2coc(n2)-c2coc(n2)-c2cc(Br)cc(n2)-c2nc(co2)-c2nc1co2 [Compound 34]	250 °C (dec.)	> 10000	> 10000	
CN(C)CCc1oc2nc1C(=O)NCc1cccc(c1)CNC(=O)c1nc(oc1CCN(C)C)-c1coc(n1)-c1cccc(n1)-c1nc-2co1 [Compound 78]		200	100	
